The source of these data is article PMC7695847, “The structural basis of promiscuity in small multidrug resistance transporters” (Nature Communications, 2020).

The target of experiment [1] is T1, EmrE (Escherichia coli, UniProt P23895).
T1 construct: full-length; N-terminal His6 tag with thrombin site; expressed in E. coli; homodimer; reconstituted in proteoliposomes
Put plainly: SSM electrophysiology, proteoliposomes. Conditions: 1 mM; pH 7.5; reference compound for normalisation. Format: biochemical.

For experiment [2], the target named is T1, EmrE. Put plainly: […]-methyl viologen uptake into proteoliposomes. The experiment is classed as biochemical. Conditions: 7 µM 14C-methyl viologen; pH 7.5; labelled compound.
The test system of a further experiment is T2, Gdx-Clo.
T2 construct: gene HMPREF1982_00479; full-length; C-terminal His6 tag with LysC site, tag cleaved by LysC; expressed in E. coli C41(DE3); antiparallel homodimer
T2 sequence (U2EQ00 entry or part of it): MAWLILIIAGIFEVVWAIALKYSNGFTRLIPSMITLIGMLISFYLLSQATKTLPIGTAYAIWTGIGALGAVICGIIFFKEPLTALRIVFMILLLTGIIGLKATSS
Put plainly: […]-Gdm+ uptake and SSM electrophysiology, proteoliposomes. The experiment is classed as biochemical, Clostridiales bacterium oral taxon 876. As to conditions: 20 µM 14C-Gdm+ or 1 mM (SSM); pH 7.5; labelled compound.

T1 sequence (P23895 whole entry): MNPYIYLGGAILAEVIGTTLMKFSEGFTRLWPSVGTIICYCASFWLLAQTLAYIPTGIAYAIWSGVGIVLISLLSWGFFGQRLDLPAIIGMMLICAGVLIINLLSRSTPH

Regarding `N=C(N)Nc1ccccc1` [phenylGdm^+], the “SSM electrophysiology, proteoliposomes” value at EmrE [1] is “methyl-, ethyl-, and phenylGdm^+ evoked increasingly larger currents”.
Turning to `C[n+]1ccc(-c2cc[n+](C)cc2)cc1` [methyl viologen], the “14C-methyl viologen uptake into proteoliposomes” value at EmrE [2] is reported as “EmrE transports methyl viologen, but not Gdm^+”.
Regarding `N=C(N)N` [Gdm^+], in the experiment on Gdx-Clo, the “14C-Gdm+ uptake and SSM electrophysiology, proteoliposomes” value is given as “Gdx-Clo transports Gdm^+, but not methyl viologen”.
